Laboratory results taken from patent US10016425B2, “Anti-ulcerative colitis compound” (KING SAUD UNIVERSITY, priority 2016, dated 2018).

Legend:
[1] = test system: Acetic Acid-induced Colitis; experiment: Acetic acid-induced colitis in rats (prophylactic effect, macroscopic scoring); type: in vivo, male Wistar rats; conditions: for percent protection of control colitis: 50 mg/kg orally; for anti-ulcerative colitis activity (in words): administrated orally to rats, 50 mg/kg
Method: (§1) The anti-ulcerative colitis compounds were tested on Swiss albino mice of both genders (26-30 g), as well as male Wistar rats (180-200 g). The animals were housed in standard polypropylene cages with wire mesh tops and maintained under standard conditions (temperature of 23±1.0° C., humidity of 55±10%, 12 h light/12 h dark cycle). They were fed with a standard pellet diet with water ad libitum and were allowed to adapt to the laboratory environment for one week before experimentation.
In order to examine the effect of the treatment compounds on ulcerative colitis, five groups of six rats were used. Two groups received compounds 5 and 6 at a dose of 50 mg/kg of body weight. Three other groups of animals were used, with two receiving water orally and the third receiving dexamesathone at a dose of 0.1 mg/kg orally, serving as control, control colitis and standard groups, respectively. All medications were administrated for five successive days. Two hour after the last dose, ulcerative colitis was induced by slowly infusion of 2 mL (4%, v/v) of acetic acid in saline into the colon through a catheter. Two days after the induction of colitis, the animals were sacrificed and colonic segments (8 cm in length and 3 cm proximal to the anus) were excised, opened and were used for macroscopic scoring.
To assess colonic lesions, the colon specimens were weighted and the wet weight/length ratio was calculated for all of the animals. The specimens were examined under a dissecting microscope and mucosal lesions were quantified by the scoring system (0-5): 0=no damage, 1=local edema and inflammation without ulcers; 2=one ulcer without inflammation; 3=one to two ulcers with inflammation and lesion diameter <1 cm; 4=more than two ulcers with lesion diameter 1-2 cm; 5=severe ulceration with lesion diameter >2 cm.
Ulcer area was measured using a plane glass square. Each cell on the glass square was 1 mm^2 in area and the number of cells were counted and the ulcer area was determined for each colon. Ulcer index was measured by summing the lesion score and the ulcer area for each colon specimen. All values were expressed as mean±S.D. Statistical analysis was performed using SPSS 10. Statistical significance of differences between two means was assessed by unpaired student's T-test. Differences at p<0.05, 0.01, and 0.001 were considered statistically significant.

Swiss albino mice = conditions: mouse, in vivo
Method: as §1
In order to determine the oral median lethal dose (LD50) of the anti-ulcerative colitis compound, the Swiss albino mice (in groups of six), received one of 50, 100, 500, or 1000 mg/kg doses of the target compound. Control animals received the pharmaceutical vehicle only and were kept under the same conditions. Signs of acute toxicity and the number of deaths per dose within 24 hours were recorded.

[2] = test system: Liver and Kidney Functions; experiment: Effect on liver and kidney functions in rats after 15 days oral dosing; type: in vivo, male Wistar rats; parameters: ALT / AST: dose or concentration left out as unconfirmed; conditions: oral 15 days; for Blood Urea / ALT / AST / Creatinine: mean ± SD, n = 10; for hepatotoxic manifestation / nephrotoxic manifestations: no significant difference to control at 0.05 level; for ALT / AST / Creatinine: serum
Method: as §1
The male Wister rats were divided into two equal groups each having ten rats. […] After the examination period, 6 hours after the last dose blood samples were collected from the orbital plexus of rats, samples were left to clot at room temperature for 30 minutes and then centrifuged at 1000 rpm for 20 minutes. The collected sera were used for determination of the activity of both […] (AST) and alanine aminotransferase (ALT) as liver markers. Additionally, levels of blood urea and serum creatinine were also estimated as kidney markers.

SMILES	percent protection of control colitis [1] [%]	anti-ulcerative colitis activity (in words) [1]	behavioral changes and/or mortality in mice (Swiss albino mice)	Blood Urea [2] [mg/dL]	hepatotoxic manifestation [2]	nephrotoxic manifestations [2]	ALT [2] [U/l]	AST [2] [U/l]	Creatinine [2] [mg/dL]	percent protection ([1]; 0.1 mg/kg orally) [%]
COc1cc(/C=N/n2c(-c3ccc(C)cc3)nc3ccccc3c2=O)ccc1O [Compound 5, 3-[(4-hydroxy-3-methoxy-benzylidene)-amino]-2-p-tolyl-3H-quinazolin-4-one]	51.2	potent anti-ulcerative colitis activity	did not produce any behavioral changes and/or mortality	65.50 ± 1.9	do not result in hepatotoxic manifestation	no apparent nephrotoxic manifestations	38.67 ± 0.22	63.23 ± 0.39	0.85 ± 0.02	–
COc1cc(/C=N/n2c(-c3ccc(C)cc3)nc3ccccc3c2=O)cc(OC)c1OC [Compound 6, 2-p-tolyl-3-[3,4,5-trimethoxy-benzylidene-amino]-3H-quinazolin-4-one]	61.8	potent anti-ulcerative colitis activity	did not produce any behavioral changes and/or mortality	65.50 ± 1.9	do not result in hepatotoxic manifestation	no apparent nephrotoxic manifestations	38.67 ± 0.22	63.23 ± 0.39	0.85 ± 0.02	–
C[C@@H]1C[C@H]2[C@@H]3CCC4=CC(=O)C=C[C@]4(C)[C@@]3(F)[C@@H](O)C[C@]2(C)[C@@]1(O)C(=O)CO [Dexamethasone, reference compound]	–	–	–	–	–	–	–	–	–	72.2
